Test results from PubChem BioAssay (NCI).
Values joined by “and” are separate entries in the source; they are usually repeats but may differ in a detail not shown here. Identical values can stand only once.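 Step 1: Grow cells in 96-well plates. Step 2: Expose to compound for 48 hours at 5 concentrations. Step 3: Interpolate endpoints linearly; if unreached, use highest concentration. GI50: concentration for 50% inhibition of growth. The concentration for full growth arrest is given as TGI.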

Experiments:
Assay in all cases: inhibition of tumour cell growth, NCI panel, 48 h
[1] = tested on: HCC-2998 colon
[2] = tested on: A549 NSCLC
[3] = tested on: HS 578T breast
[4] = tested on: UACC-62 melanoma
[5] = tested on: HOP-92 NSCLC
[6] = tested on: UACC-257 melanoma
[7] = tested on: COLO 205 colon
[8] = tested on: RPMI-8226 leukemia
[9] = tested on: MOLT-4 leukemia
[10] = tested on: K-562 leukemia

Row | Compound | GI50 [1] [µM] | TGI [1] | GI50 [2] | TGI [2] | GI50 [3] | TGI [3] | GI50 [4] | TGI [4] | GI50 [5] [µM] | TGI [5] [µM] | GI50 [6] | TGI [6] | GI50 [7] | TGI [7] | GI50 [8] | TGI [8] | GI50 [9] | TGI [9] | GI50 [10] | TGI [10]
1 | O=[N+]([O-])c1c(Br)sc(Br)c1[N+](=O)[O-] | 12.3 | 26.2 µM | 13.7 µM | 41.5 µM | 2.59 µM | 9.53 µM | 1.87 µM | 4.68 µM | 1.87 | 3.57 | 1.52 µM | 3.04 µM | 1.57 µM | 3.38 µM | 1.91 µM | 5.54 µM | 1.01 µM | 5.35 µM | 0.815 µM | 3.99 µM
2 | CCNC(=O)c1cc2c(-c3cc(C(C)(C)O)ccc3Oc3c(C)cc(F)cc3C)cn(C)c(=O)c2[nH]1 | 1.66 | 4.03 µM | 2.1 µM | 14.6 µM | 0.753 µM | 21.5 µM | 0.17 µM | 9.42 µM | 0.257 | 10.9 | 2.27 µM | 18.5 µM | 0.507 µM | 2.84 µM | 0.605 µM | 8.98 µM | 2.36 µM | 10.2 µM | 1.86 µM | > 100 µM
3 | Nc1nc(-c2ccc(F)cc2)c(-c2ccc3ncccc3n2)s1 | > 25 | > 25 µM | 13.7 µM | > 25 µM | 9.61 µM | > 25 µM | > 23.2 µM | > 25 µM | 0.268 | 24.6 | > 25 µM | > 25 µM | > 25 µM | > 25 µM | > 19.8 µM | > 25 µM | 17.4 µM | > 25 µM | > 18.5 µM | > 25 µM
4 | CN(CC(=O)N(Cc1ccc(C2CCCCC2)cc1)c1ccc(C(=O)O)c(O)c1)S(=O)(=O)c1c(F)c(F)c(F)c(F)c1F | 2.37 | 5.72 µM | 14.9 µM | 31.7 µM | 6.92 µM | 35.1 µM | 3.18 µM | 12.1 µM | 1.95 | 8.91 | 3.93 µM | 8.53 µM | 12.7 µM | 26.5 µM | 2.28 µM | 6.37 µM | 3.12 µM | 12 µM | 2.05 µM | 4.57 µM
5 | COc1cc(COC(=O)N(CC(=O)O)c2ccccc2)c([N+](=O)[O-])cc1OC |  | > 100 µM |  | > 100 µM |  | > 100 µM |  | > 100 µM |  | > 100 |  | > 100 µM |  | > 100 µM |  | > 100 µM |  | > 100 µM |  | > 100 µM
6 | COc1ccc(-c2nc3ccccn3c2/C=C/C(=O)c2cc(OC)c(OC)c(OC)c2)cc1 | 8.27 | 42 µM | 7.96 µM | > 100 µM | 2.89 µM | 51.7 µM | 5.58 µM | > 100 µM | 2.36 | 51.4 | 5.85 µM | > 100 µM | 3.5 µM | 13.5 µM | 7.5 µM | > 100 µM | 32.9 µM | > 100 µM | 13.1 µM | > 100 µM
7 | NC(=O)c1ccc2nc(-c3ccc(Oc4ccc(Cl)cc4)cc3)[nH]c2c1 |  | 75 µM and 33.5 µM | 49.8 µM and 10.4 µM | 75 µM and 28 µM | 24.2 µM and 16.5 µM | 75 µM and 42.6 µM | 75 µM and 16.4 µM | 75 µM and 30.7 µM | > 75 | > 75 | 66.7 µM and 18.4 µM | 75 µM and 33.5 µM | 22.3 µM and 20.8 µM | 75 µM and 38.9 µM | > 75 µM and 10.9 µM | > 75 µM and 37.6 µM | 28.6 µM and 11.5 µM | 75 µM and 33.3 µM | 37.8 µM and 10.3 µM | 75 µM and 88.3 µM
8 | c1csc(-c2cc(-c3cccs3)c(-c3cccs3)s2)c1 |  | > 100 µM |  | > 100 µM |  | > 100 µM |  | > 100 µM |  | > 100 |  | > 100 µM |  | > 100 µM |  |  |  | > 100 µM |  | > 100 µM
9 | C[C@@H](CO)[C@@H]1CCC=C2CC[C@]3(C)[C@H](CC[C@@H]4[C@@]5(C)CCCNC(C)(C)[C@@H]5CC[C@]43C)[C@H]21 | 1.62 | 3.11 µM | 2.24 µM | 5.04 µM | 2.08 µM | 5.19 µM | 1.73 µM | 3.18 µM | 1.87 | 8.71 | 2.59 µM | 7.08 µM |  |  |  |  | 2.5 µM | 7.27 µM | 2.01 µM | 6.73 µM
10 | CCN(C(=O)c1cc(F)ccc1Oc1cncnc1N1CC2(CCN(CC3CCC(NS(=O)(=O)CC)CC3)CC2)C1)C(C)C (stereo not given) | > 100 | > 100 µM | > 100 µM | > 100 µM | > 100 µM | > 100 µM | > 100 µM | > 100 µM | > 100 | > 100 | > 100 µM | > 100 µM | > 100 µM | > 100 µM | > 100 µM | > 100 µM | > 100 µM | > 100 µM | > 100 µM | > 100 µM
11 | Nc1nc(-c2ccccc2)nc(N)c1N=O | 14.1 | 27.6 µM | 8.86 µM | 23.3 µM | 8.14 µM | > 100 µM | 3.6 µM | 14 µM | 5.32 | 23.5 | 8.75 µM | 44.3 µM | 2.59 µM | 8.45 µM | 17.9 µM | 78.7 µM | 17.4 µM | > 100 µM | 5.09 µM | 72.3 µM
12 | O=C(Nc1ccccc1)NS(=O)(=O)c1ccc(-n2nc3c(c2-c2ccc(Cl)cc2)Cc2ccccc2-3)cc1 |  |  | 24.5 µM | > 100 µM | 19.6 µM | 82.3 µM | 12.2 µM | 30.6 µM | 17.1 | 67 | 37.1 µM | > 100 µM | 23.5 µM | 64.9 µM | 16.5 µM | 48.9 µM | 7.05 µM | 42.4 µM | 4.66 µM | 21.9 µM
13 | Cc1cccc2c(=O)c3c(sc12)c(NCCNCCO)nc1ccccc13 | 1.55 | 3.11 µM | 1.47 µM | 3.19 µM | 1.62 µM | 3.74 µM | 1.63 µM | 3.07 µM | 1.17 | 3.05 | 1.86 µM | 3.79 µM | 1.56 µM | 3.35 µM | 1.81 µM | 3.88 µM | 1.53 µM | 3.21 µM |  | 
14 | O=C(O)c1cccc(N=Nc2c(S(=O)(=O)O)ccc3c2C(=O)c2ccccc2C3=O)c1O |  |  |  | > 100 µM |  | > 100 µM |  | > 100 µM |  | > 100 |  | > 100 µM |  | > 100 µM |  | > 100 µM |  | > 100 µM |  | > 100 µM
15 | COc1cc(O)c(C(=O)/C=C/c2ccc(O)cc2)c(O)c1[C@@H]1C[C@H](CCc2ccc(O)cc2)O[C@H](c2ccc(O)cc2)C1 | 2.25 | 4.02 µM |  |  | 3.34 µM | 16.6 µM | 3.38 µM | 12.9 µM | 2 | 5.92 | 5.47 µM | 20.2 µM | 2.72 µM | 8.44 µM | 2.18 µM | 5 µM | 1.95 µM | 5.43 µM |  | 
16 | COc1cc(OC)c(/C=C/c2cnc3ccccc3n2)c(OC)c1 |  | > 10 µM |  | > 10 µM |  | > 10 µM |  | > 10 µM |  | > 10 |  | > 10 µM |  | > 10 µM |  | > 10 µM |  |  |  | > 10 µM
17 | O=C1c2ccccc2C(=O)c2c1ccc(C1C(=O)c3ccccc3C1=O)c2-c1c(C2C(=O)c3ccccc3C2=O)ccc2c1C(=O)c1ccccc1C2=O |  |  |  | > 100 µM |  | > 100 µM |  | > 100 µM |  | > 100 |  | > 100 µM |  | > 100 µM |  | > 100 µM |  | 82.5 µM |  | > 100 µM
18 | c1cc(CNCCN2CCNCC2)ccn1 |  |  |  | > 100 µM |  | > 100 µM |  | > 100 µM |  | > 100 |  | > 100 µM |  | > 100 µM |  | > 100 µM |  | > 100 µM |  | > 100 µM
19 | C=C1CCC2C(C)(C)CCC[C@]2(C)[C@H]1CO (stereo not given in full) | 13.5 | 33 µM | 73.9 µM | > 100 µM | > 100 µM | > 100 µM | > 100 µM | > 100 µM | 74.9 | > 100 | > 100 µM | > 100 µM | 42.1 µM | > 100 µM |  |  | 73.2 µM | > 100 µM | 73.8 µM | > 100 µM
20 | COc1ccc(Nc2c3ccccc3nc3ccccc23)cc1 | 1.92 | 11.2 µM | 0.809 µM | 11 µM | 5.26 µM | 27.5 µM |  |  | 0.259 | 2.93 | 2.71 µM | 14.4 µM | 0.52 µM | 1.85 µM | 1.26 µM | 4.66 µM | 0.59 µM | 3.39 µM | 0.583 µM | 7.19 µM
21 | CCC1CCc2nc3sc(C(=O)Nc4cccc(F)c4)c(N)c3cc2C1 (stereo not given) | > 100 | > 100 µM | > 100 µM | > 100 µM | > 100 µM | > 100 µM | 0.376 µM | > 100 µM | > 100 | > 100 | > 100 µM | > 100 µM | 51.8 µM | > 100 µM | > 100 µM | > 100 µM | 39.8 µM | > 100 µM |  | 
22 | Cc1occc1C(=S)Nc1ccc(Cl)c(C(=O)OC(C)C2CC2)c1 (stereo not given) |  | 39.5 µM |  | > 100 µM |  | 69.1 µM |  | 71.1 µM |  | 51.5 |  | > 100 µM |  | 51.3 µM |  | 60.1 µM |  | 57.5 µM |  | 
